Measurements as given in PubChem BioAssay AID330 (DTP/NCI, 2004).
“And” between values parts separate entries of the source, which are not always exact repeats. Identical values can stand only once. Inconclusive results and toxic doses are left out. Rule for the calls: active = survival T/C of 150% or more; inactive = T/C below 125% in these data.

System: P388 leukemia ip, CD2F1 mice, survival T/C
Experiment: NCI In Vivo Anticancer Drug Screen. Data for tumor model P388 Leukemia (intraperitoneal) in CD2F1 (CDF1) mice
Settings: endpoint: median survival time, higher = longer survival
Procedure, shortened: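 Mice carrying the transplanted tumor received test compound or vehicle. Survival was recorded in each group, and the value is the treated-group measurement divided by that of the vehicle-treated control group.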

[1] = dose: 100.0 mg/kg/injection, schedule: Q01DX001 (ip), vehicle: saline with Tween-80
[2] = dose: 50.0 mg/kg/injection, schedule: Q04DX002 (ip), vehicle: saline with Tween-80
[3] = dose: 100.0 mg/kg/injection, schedule: Q04DX002 (ip), vehicle: saline with Tween-80
[4] = dose: 25.0 mg/kg/injection, schedule: Q01DX005 (ip), vehicle: saline with Tween-80
[5] = dose: 50.0 mg/kg/injection, schedule: Q01DX005 (ip), vehicle: saline with Tween-80
[6] = dose: 100.0 mg/kg/injection, schedule: Q01DX005 (ip), vehicle: saline with Tween-80
[7] = dose: 50.0 mg/kg/injection, schedule: Q01DX009 (ip), vehicle: saline
[8] = dose: 100.0 mg/kg/injection, schedule: Q01DX009 (ip), vehicle: saline

Measured: T/C

CO[C@H]1C[C@@H]2CC[C@@H](C)[C@@](O)(O2)C(=O)C(=O)N2CCCC[C@H]2C(=O)O[C@H]([C@H](C)C[C@@H]2CC[C@@H](O)[C@H](OC)C2)CC(=O)[C@H](C)C=C(C)[C@@H](O)[C@@H](OC)C(=O)[C@H](C)C[C@H](C)/C=C/C=C/C=C1C
inactive: dose: 6.25 mg/kg/injection, schedule: Q01DX001 (ip), vehicle: clinical formulation 103 % of control | dose: 6.25 mg/kg/injection, schedule: Q01DX001 (iv), vehicle: clinical formulation 102 % of control | dose: 6.25 mg/kg/injection, schedule: Q01DX005 (iv), vehicle: clinical formulation 115 % of control | dose: 12.5 mg/kg/injection, schedule: Q01DX001 (ip), vehicle: clinical formulation 107 % of control | dose: 12.5 mg/kg/injection, schedule: Q01DX001 (iv), vehicle: clinical formulation 100 % of control | dose: 12.5 mg/kg/injection, schedule: Q01DX005 (iv), vehicle: clinical formulation 110 % of control | dose: 25.0 mg/kg/injection, schedule: Q01DX001 (ip), vehicle: clinical formulation 111 % of control | dose: 25.0 mg/kg/injection, schedule: Q01DX001 (iv), vehicle: clinical formulation 100 % of control | dose: 25.0 mg/kg/injection, schedule: Q01DX005 (iv), vehicle: clinical formulation 113 % of control | dose: 50.0 mg/kg/injection, schedule: Q01DX001 (ip), vehicle: clinical formulation 118 % of control | dose: 50.0 mg/kg/injection, schedule: Q01DX001 (iv), vehicle: clinical formulation 106 % of control | dose: 50.0 mg/kg/injection, schedule: Q01DX005 (iv), vehicle: clinical formulation 113 % of control | dose: 50.0 mg/kg/injection, schedule: Q01DX005 (oral), vehicle: saline with Tween-80 110 % of control | dose: 50.0 mg/kg/injection, schedule: Q01DX009 (oral), vehicle: saline with Tween-80 116 % of control | dose: 100.0 mg/kg/injection, schedule: Q01DX001 (ip), vehicle: clinical formulation 117 % of control | [1] 124 % of control | dose: 100.0 mg/kg/injection, schedule: Q01DX001 (iv), vehicle: clinical formulation 104 % of control | dose: 100.0 mg/kg/injection, schedule: Q01DX005 (ip), vehicle: clinical formulation 110 % of control | dose: 100.0 mg/kg/injection, schedule: Q01DX005 (oral), vehicle: saline with Tween-80 112 % of control | dose: 100.0 mg/kg/injection, schedule: Q01DX009 (oral), vehicle: saline with Tween-80 119 % of control | dose: 200.0 mg/kg/injection, schedule: Q01DX001 (ip), vehicle: clinical formulation 118 % of control | dose: 200.0 mg/kg/injection, schedule: Q01DX005 (oral), vehicle: saline with Tween-80 108 % of control | dose: 200.0 mg/kg/injection, schedule: Q01DX009 (ip), vehicle: saline with Tween-80 122 % of control | dose: 200.0 mg/kg/injection, schedule: Q01DX009 (oral), vehicle: saline with Tween-80 112 % of control | dose: 400.0 mg/kg/injection, schedule: Q01DX005 (oral), vehicle: saline with Tween-80 118 % of control | dose: 400.0 mg/kg/injection, schedule: Q01DX009 (oral), vehicle: saline with Tween-80 116 % of control | dose: 800.0 mg/kg/injection, schedule: Q01DX005 (oral), vehicle: saline with Tween-80 116 % of control | dose: 800.0 mg/kg/injection, schedule: Q01DX009 (oral), vehicle: saline with Tween-80 116 % of control

O=C1CCCC(CCc2ccccc2)O1 (stereo unspecified)
inactive: [1] 100 % of control | dose: 200.0 mg/kg/injection, schedule: Q01DX001 (ip), vehicle: saline with Tween-80 101 % of control | dose: 400.0 mg/kg/injection, schedule: Q01DX001 (ip), vehicle: saline with Tween-80 100 % of control

CC(C)CNC(=O)NCCCCCCNC(=O)NCC(C)C
inactive: dose: 60.0 mg/kg/injection, schedule: Q01DX005 (ip), vehicle: saline with Tween-80 94 % of control | dose: 120.0 mg/kg/injection, schedule: Q01DX005 (ip), vehicle: saline with Tween-80 93 % of control | dose: 240.0 mg/kg/injection, schedule: Q01DX005 (ip), vehicle: saline with Tween-80 93 % of control

O=C(/C=C/c1ccccc1)O[C@@H]1CC2CC1C[C@H]2c1cnc[nH]1 (stereo partly specified)
inactive: dose: 25.0 mg/kg/injection, schedule: Q04DX002 (ip), vehicle: saline with Tween-80 100 % of control | [2] 101 % of control | [3] 92 % of control

CCCC1C/C=C/C=C/C=C/C=C/C(OC2OC(C)C(O)C(N)C2O)CC(O)C(C(=O)O)C(O)CC(=O)CC(O)CCCC(=O)CC(O)C(CC)C(=O)O1 (stereo unspecified)
inactive: dose: 2.5 mg/kg/injection, schedule: Q01DX009 (ip), vehicle: Klucel (hydroxypropylcellulose) (HPC) 94 % of control | dose: 5.0 mg/kg/injection, schedule: Q01DX009 (ip), vehicle: Klucel (hydroxypropylcellulose) (HPC) 106 % of control | dose: 10.0 mg/kg/injection, schedule: Q01DX009 (ip), vehicle: Klucel (hydroxypropylcellulose) (HPC) 92 % of control | dose: 20.0 mg/kg/injection, schedule: Q01DX009 (ip), vehicle: Klucel (hydroxypropylcellulose) (HPC) 87 % of control

Cc1cn(CCCCCCCCCCCCOc2c3occc3cc3ccc(=O)oc23)c(=O)[nH]c1=O
inactive: dose: 50.0 mg/kg/injection, schedule: Q04DX002 (ip), vehicle: Klucel (hydroxypropylcellulose) (HPC) 96 % of control | dose: 100.0 mg/kg/injection, schedule: Q04DX002 (ip), vehicle: Klucel (hydroxypropylcellulose) (HPC) 98 % of control | dose: 200.0 mg/kg/injection, schedule: Q01DX005 (ip), vehicle: Klucel (hydroxypropylcellulose) (HPC) 92 % of control | dose: 200.0 mg/kg/injection, schedule: Q04DX002 (ip), vehicle: Klucel (hydroxypropylcellulose) (HPC) 95 % of control

CN=C1NC(=O)C(C(C)c2c[nH]c3ccccc23)S1 (stereo unspecified)
inactive: dose: 50.0 mg/kg/injection, schedule: Q01DX009 (ip), vehicle: Klucel (hydroxypropylcellulose) (HPC) 111 % of control | dose: 100.0 mg/kg/injection, schedule: Q01DX009 (ip), vehicle: Klucel (hydroxypropylcellulose) (HPC) 111 % of control | dose: 200.0 mg/kg/injection, schedule: Q01DX009 (ip), vehicle: Klucel (hydroxypropylcellulose) (HPC) 113 % of control

CN=C(N)NN=C(c1ccc(F)cc1)c1ccc(F)cc1
inactive: dose: 12.5 mg/kg/injection, schedule: Q04DX002 (ip), vehicle: saline with Tween-80 100 % of control and 106 % of control | [2] 87 % of control

CCOCc1cn[nH]n1
inactive: dose: 60.0 mg/kg/injection, schedule: Q01DX005 (ip), vehicle: saline 100 % of control | dose: 120.0 mg/kg/injection, schedule: Q01DX005 (ip), vehicle: saline 100 % of control | dose: 240.0 mg/kg/injection, schedule: Q01DX005 (ip), vehicle: saline 104 % of control

O=[N+]([O-])c1ccc(SSc2ccc([N+](=O)[O-])s2)s1
inactive: dose: 100.0 mg/kg/injection, schedule: Q01DX001 (ip), vehicle: Klucel (hydroxypropylcellulose) (HPC) 106 % of control

CC(C)CC(=O)CC(C)(O)CCC(=O)c1ccoc1 (stereo unspecified)
inactive: [4] 98 % of control | [5] 104 % of control | [6] 102 % of control

Nc1ccccc1SC1=C(Cl)C(=O)c2ccccc2C1=O
inactive: dose: 6.25 mg/kg/injection, schedule: Q01DX009 (ip), vehicle: saline with Tween-80 95 % of control | dose: 12.5 mg/kg/injection, schedule: Q01DX009 (ip), vehicle: saline with Tween-80 94 % of control | dose: 25.0 mg/kg/injection, schedule: Q01DX009 (ip), vehicle: saline with Tween-80 103 % of control

CCCCOCC(=O)O
inactive: dose: 25.0 mg/kg/injection, schedule: Q01DX009 (ip), vehicle: saline 94 % of control | [7] 97 % of control | [8] 93 % of control

Fc1ccc(NC(=S)SCc2ccco2)cc1
inactive: dose: 50.0 mg/kg/injection, schedule: Q01DX009 (ip), vehicle: suspension in saline 101 % of control | dose: 100.0 mg/kg/injection, schedule: Q01DX009 (ip), vehicle: suspension in saline 98 % of control | dose: 200.0 mg/kg/injection, schedule: Q01DX009 (ip), vehicle: suspension in saline 92 % of control

N#C/C(=C\c1ccc(Cl)cc1)C(=O)N/N=C/c1ccc(Cl)cc1
inactive: [7] 97 % of control | [8] 97 % of control | dose: 200.0 mg/kg/injection, schedule: Q01DX009 (ip), vehicle: saline 101 % of control

CC1(C)C(c2ccccc2)C1(Cl)Cl (stereo unspecified)
inactive: [3] 99 % of control | dose: 200.0 mg/kg/injection, schedule: Q04DX002 (ip), vehicle: saline with Tween-80 93 % of control

CC(C)NC(=O)c1ccc(N/N=[N+](/C)[O-])cc1
inactive: dose: 6.25 mg/kg/injection, schedule: Q01DX005 (ip), vehicle: saline with Tween-80 97 % of control | dose: 12.5 mg/kg/injection, schedule: Q01DX005 (ip), vehicle: saline with Tween-80 99 % of control | [4] 98 % of control | [5] 92 % of control | [6] 102 % of control
